# Experiments:
# AR [1] = assay: Mammalian two-hybrid assay hRad9 / AR in PC-3 cells; type: cell-based, human; conditions: 10 nM DHT, positive control
# Procedure: (§1) PC-3, CWR22R, and LNCaP cell lines were maintained in […] supplemented with 10% fetal calf serum (FCS). Transient transfection for luciferase assays was carried out in 24-well plates (5×10^4 cells per well) using SuperFect as described previously (Lin, H. K., et al., Embo J 21:4037-48 (2002)). DNA mixtures in transfection assay were indicated in each figure. The total amount of transfected DNA was kept constant (1 μg) by adding the corresponding amounts of empty expression plasmids. After transfection, cells were cultured in RPMI-1600 supplemented with 5% charcoal-stripped FCS in the presence or absence of 10 nM dihydrotestosterone (DHT) for 18 h. Luciferase assays were performed as previously described (Yang, L., et al., J Biol Chem 278:16820-7 (2003)). In Western blotting assays, CWR22R or LNCaP cells were transfected by electroporation using 5×10^6 cells/0.4 ml of RPMI medium containing 2% FCS plus 9 μg of the indicated plasmids. 1 μg of EGFP expression vector was used for transfection efficiency. Electroporation was performed at 250 V and 950 μF using Gene Pulser II (Bio-Rad)
# Target sequence in this assay (P10275 with tags, fused parts or gaps DEL79-80/DUP473-473): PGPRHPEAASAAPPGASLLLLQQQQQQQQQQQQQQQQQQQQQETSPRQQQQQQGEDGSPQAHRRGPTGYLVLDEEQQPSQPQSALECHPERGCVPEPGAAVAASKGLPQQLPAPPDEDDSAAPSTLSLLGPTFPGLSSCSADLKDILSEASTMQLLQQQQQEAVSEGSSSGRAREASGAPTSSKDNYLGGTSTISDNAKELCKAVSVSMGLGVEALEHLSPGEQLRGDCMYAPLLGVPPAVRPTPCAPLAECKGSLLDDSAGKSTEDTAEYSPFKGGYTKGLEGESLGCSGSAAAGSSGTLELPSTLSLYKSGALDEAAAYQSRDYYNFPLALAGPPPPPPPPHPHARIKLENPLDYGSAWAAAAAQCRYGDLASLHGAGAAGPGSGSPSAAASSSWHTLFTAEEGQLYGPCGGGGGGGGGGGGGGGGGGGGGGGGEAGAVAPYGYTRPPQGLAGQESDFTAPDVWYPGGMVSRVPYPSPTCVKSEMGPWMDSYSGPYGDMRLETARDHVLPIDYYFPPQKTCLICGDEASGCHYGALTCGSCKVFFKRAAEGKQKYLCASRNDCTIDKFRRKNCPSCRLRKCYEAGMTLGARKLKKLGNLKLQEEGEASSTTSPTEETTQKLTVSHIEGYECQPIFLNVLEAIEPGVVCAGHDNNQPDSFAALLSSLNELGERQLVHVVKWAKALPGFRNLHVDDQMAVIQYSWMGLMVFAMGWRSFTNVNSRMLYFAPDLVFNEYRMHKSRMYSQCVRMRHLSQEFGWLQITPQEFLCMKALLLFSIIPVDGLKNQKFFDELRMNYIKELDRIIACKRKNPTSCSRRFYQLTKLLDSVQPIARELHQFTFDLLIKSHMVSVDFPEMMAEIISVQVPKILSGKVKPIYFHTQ
# AR N/C interaction = assay: Reconstituted AR transcription assay (AR N/C interaction) in PC-3 cells; type: cell-based, human; conditions: 10 nM DHT, MMTV-LUC
# Procedure: as §1
# AR (DBD-LBD, LBD, DBD) = assay: Yeast two-hybrid / liquid β-gal assay hRad9 fragment / AR domains; type: cell-based, human; conditions: AH109 yeast cells
# Text: The DBD and LBD of AR cDNA was amplified and was cloned into the NdeI and BamHI site of pGBKT7 (Clontech). Yeast strain AH109 was transformed with the vector encoding GAL4 DBD-AR-DBD-LBD fusion and was mated with yeast strain Y187 pretransformed with the human ovary […] cDNA library (Clontech). The yeast clones were selected following the manufacturer's instruction. The positive clones were confirmed by clone lift assay and purified plasmids were retransformed into yeast strain AH109 with bait plasmids. The interaction specificity was further confirmed by liquid […] assay.
# AR [2] = assay: In vitro GST pull-down assay GST-hRad9 / AR domains; type: binding, human
# Procedure: The N-terminus (N), DBD, LBD, and DBD-LBD of AR were in vitro translated in the presence of [^35S] methionine using T7 polymerase and the coupled transcription/translation kit (Promega). pGEX-KG-hRad9 plasmids expressing GST-hRad9 fusion protein were transformed into BL21 (DE3) bacteria strain. 0.4 mM isopropyl-o-D-thiogalactopyranoside was added into LB medium containing transformed bacteria when the OD600 reached 0.5. Bacteria were further cultured in 30° C. for 3 h and lysed by 4 cycles of freezing-thawing in NETN buffer (20 mM Tris/pH 8.0, 0.5% NP-40, 100 mM NaCl, 6 mM MgCl2, 1 mM EDTA, 1 mM DTT, 8% glycerol, and 1 mM PMSF). The GST-hRad9 fusion proteins were purified with glutathione-beads in 4° C. Labeled proteins of AR mutants were incubated with equal amounts of GST-hRad9 in binding buffer (50 mM Hepes, 100 mM NaCl, 20 mM Tris-Cl/pH 8.0, 0.1% Tween 20, 10% glycerol, 1 mM dithiothreitol, 0.5 mM phenylmethysulfonyl fluoride, 1 mM NaF, and 0.4 mM sodium vanadate) with or without 10 nM DHT at 4° C. for 2 h. The beads were then washed with NETN buffer 4 times, resuspended in SDS-polyacrylamide loading buffer, and resolved on 10% SDS-polyacrylamide gel electrophoresis followed by autoradiograhy.
# AR [3] = assay: AR transactivation MMTV-LUC assay in PC-3 cells with hRad9; type: cell-based, human; conditions: MMTV-LUC, 10 nM DHT
# Procedure: as §1
# Target sequence in this assay (P10275 with tags, fused parts or gaps DEL79-80/DUP473-473): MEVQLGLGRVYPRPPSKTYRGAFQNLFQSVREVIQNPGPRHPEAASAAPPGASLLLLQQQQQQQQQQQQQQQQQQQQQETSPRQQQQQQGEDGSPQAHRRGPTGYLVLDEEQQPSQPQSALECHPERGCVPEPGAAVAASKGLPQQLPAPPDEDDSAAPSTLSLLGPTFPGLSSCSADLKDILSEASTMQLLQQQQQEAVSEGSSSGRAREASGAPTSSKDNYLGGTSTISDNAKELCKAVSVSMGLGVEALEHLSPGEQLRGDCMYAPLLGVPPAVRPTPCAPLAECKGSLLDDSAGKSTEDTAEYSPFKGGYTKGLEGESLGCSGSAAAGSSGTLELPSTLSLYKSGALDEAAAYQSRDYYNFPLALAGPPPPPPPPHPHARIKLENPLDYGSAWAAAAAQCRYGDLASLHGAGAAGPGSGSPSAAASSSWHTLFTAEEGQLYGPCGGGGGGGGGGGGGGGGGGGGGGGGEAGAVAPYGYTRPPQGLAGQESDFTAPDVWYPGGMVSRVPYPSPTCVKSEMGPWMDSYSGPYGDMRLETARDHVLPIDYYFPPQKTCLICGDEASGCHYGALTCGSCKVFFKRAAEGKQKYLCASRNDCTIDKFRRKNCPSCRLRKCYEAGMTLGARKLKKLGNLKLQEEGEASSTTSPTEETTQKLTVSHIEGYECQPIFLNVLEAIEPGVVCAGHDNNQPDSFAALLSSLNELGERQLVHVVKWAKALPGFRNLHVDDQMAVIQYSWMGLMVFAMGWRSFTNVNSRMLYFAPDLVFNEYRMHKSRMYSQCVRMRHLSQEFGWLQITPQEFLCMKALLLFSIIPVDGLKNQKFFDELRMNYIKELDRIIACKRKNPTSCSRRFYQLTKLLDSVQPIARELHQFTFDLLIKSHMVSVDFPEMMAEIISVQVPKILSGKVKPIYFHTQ
# [4] = system: PSA expression in LNCaP cells; assay: DHT-mediated induction of PSA protein in LNCaP cells with hRad9; type: cell-based, human; conditions: 10 nM DHT
# Procedure: as §1
# [5] = system: estrogen receptor α (ERα); assay: ERα transcriptional activity ERE-LUC in PC-3 cells with hRad9; type: cell-based; conditions: cognate ligand
# Procedure: as §1
# vitamin D receptor (VDR) [6] = assay: VDR transcriptional activity rCyp24-LUC in PC-3 cells with hRad9; type: cell-based; conditions: cognate ligand
# Procedure: as §1
# [7] = system: estrogen receptor α (ERα); assay: Mammalian two-hybrid assay hRad9 / ERα; type: cell-based; conditions: PC-3 cells, presence of estrogen
# Procedure: as §1, with “After transfection, cells were cultured in RPMI-1600 supplemented with 5% charcoal-stripped FCS in the presence or absence of 10 nM dihydrotestosterone (DHT) for 18 h.” left out
# vitamin D receptor (VDR) [8] = assay: Mammalian two-hybrid assay hRad9 / VDR; type: cell-based; conditions: PC-3 cells
# Procedure: as §1
# Sequence of estrogen receptor α (ERα) (P03372 whole entry, species assumed): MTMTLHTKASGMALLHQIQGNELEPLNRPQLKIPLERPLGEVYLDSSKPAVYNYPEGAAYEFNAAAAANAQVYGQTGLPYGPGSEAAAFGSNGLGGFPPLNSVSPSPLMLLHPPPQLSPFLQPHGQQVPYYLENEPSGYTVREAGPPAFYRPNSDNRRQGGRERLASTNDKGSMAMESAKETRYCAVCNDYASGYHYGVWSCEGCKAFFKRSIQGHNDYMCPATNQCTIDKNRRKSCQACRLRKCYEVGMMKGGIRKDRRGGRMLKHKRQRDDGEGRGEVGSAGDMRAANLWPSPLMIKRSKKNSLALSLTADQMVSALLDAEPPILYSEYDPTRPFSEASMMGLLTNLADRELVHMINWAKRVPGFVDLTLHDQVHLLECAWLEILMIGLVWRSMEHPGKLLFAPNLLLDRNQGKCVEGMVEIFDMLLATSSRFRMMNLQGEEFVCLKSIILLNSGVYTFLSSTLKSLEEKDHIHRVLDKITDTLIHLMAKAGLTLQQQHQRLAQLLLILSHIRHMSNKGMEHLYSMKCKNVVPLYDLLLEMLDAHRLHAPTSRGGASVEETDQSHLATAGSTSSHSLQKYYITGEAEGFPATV
# Sequence of vitamin D receptor (VDR) (P11473 whole entry, species assumed, the tested form may be a part): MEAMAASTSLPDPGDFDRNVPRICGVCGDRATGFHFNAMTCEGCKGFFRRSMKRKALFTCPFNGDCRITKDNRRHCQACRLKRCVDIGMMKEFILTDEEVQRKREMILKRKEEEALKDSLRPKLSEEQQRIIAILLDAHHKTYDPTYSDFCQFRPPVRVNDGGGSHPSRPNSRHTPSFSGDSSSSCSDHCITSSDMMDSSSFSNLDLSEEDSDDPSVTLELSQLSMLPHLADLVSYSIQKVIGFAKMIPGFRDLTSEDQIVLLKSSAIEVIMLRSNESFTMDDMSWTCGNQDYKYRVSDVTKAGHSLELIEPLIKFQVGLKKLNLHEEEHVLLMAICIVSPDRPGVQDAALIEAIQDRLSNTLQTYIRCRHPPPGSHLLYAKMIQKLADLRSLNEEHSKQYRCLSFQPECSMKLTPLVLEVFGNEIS
# Sequence of AR (DBD-LBD, LBD, DBD) (P10275 558-624): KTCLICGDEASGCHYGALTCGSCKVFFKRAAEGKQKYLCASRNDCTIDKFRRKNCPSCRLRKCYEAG
# Sequence of AR N/C interaction (P10275 557-920): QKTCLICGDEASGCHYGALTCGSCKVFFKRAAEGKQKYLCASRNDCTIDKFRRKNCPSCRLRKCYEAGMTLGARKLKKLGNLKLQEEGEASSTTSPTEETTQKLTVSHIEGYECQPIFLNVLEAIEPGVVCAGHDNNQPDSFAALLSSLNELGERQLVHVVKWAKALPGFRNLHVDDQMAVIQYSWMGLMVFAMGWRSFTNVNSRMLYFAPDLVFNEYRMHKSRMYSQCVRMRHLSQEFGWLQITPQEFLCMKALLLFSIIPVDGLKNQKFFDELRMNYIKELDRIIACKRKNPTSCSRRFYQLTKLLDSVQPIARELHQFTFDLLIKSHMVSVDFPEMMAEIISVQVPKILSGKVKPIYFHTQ
interaction with ERα [7],interaction with VDR (vitamin D receptor (VDR) [8]),Substance,DHT-dependent interaction with VP16-AR (AR [1]),interaction between AR N- and C-terminus (AR N/C interaction),"interaction with GAL4-AR-DBD (AR (DBD-LBD, LBD, DBD))",interaction with AR LBD and AR-DBD-LBD (AR [2]),interaction with N-terminus of AR (aa. 1-556) and DBD alone (AR [2]),transcriptional activity of AR (AR [3]),DHT-mediated induction of PSA [4],ER transcriptional activity [5],VDR transcriptional activity (vitamin D receptor (VDR) [6])
,,"HPTHSSRLWELLMEATPTM [GAL4-D30 peptide, reference compound]",350 fold,blockage,,,,,,,
no interaction,no interaction,"hRad9: human checkpoint protein of the Rad family (SEQ ID NO:7), corepressor of AR",,,did not interact,interacted specifically,Neither the N-terminus of AR (aa. 1-556) nor the DBD alone adhered,decreased,potently inhibited,little inhibitory effect,little inhibitory effect

# — US20080050387A1, “Non-Androgen Dependent Roles for Androgen Receptor and Non-Androgen Related Inhibitors of Androgen Receptor” (priority 2003, published 2008)
